These results are taken from PMC5418947 (The Open Medicinal Chemistry Journal, 2017).

Test [1] in a line: DPPH free radical scavenging. In kind it is physicochemical. The note with it: read-out: DPPH IC50; 0.1 mM DPPH in methanol, 30 min, room temperature, 517 nm.
In test [2] the target is TcAChE (from electric eel) (Electrophorus electricus, UniProt O42275). Kind of test: Cholinesterase assay. It is filed as biochemical.
Test [3] addresses eqBuChE (from equine serum) (Equus caballus, UniProt P81908). As to the kind of experiment: biochemical. It is filed as biochemical.

Each structure is given as a SMILES string. pIC50: −log10 of the molar value. Read-outs that look alike come from different tables or passages of the source. Where only a bound is given, the exact number is not on record here.

Chain of TcAChE (from electric eel) (O42275 24-633): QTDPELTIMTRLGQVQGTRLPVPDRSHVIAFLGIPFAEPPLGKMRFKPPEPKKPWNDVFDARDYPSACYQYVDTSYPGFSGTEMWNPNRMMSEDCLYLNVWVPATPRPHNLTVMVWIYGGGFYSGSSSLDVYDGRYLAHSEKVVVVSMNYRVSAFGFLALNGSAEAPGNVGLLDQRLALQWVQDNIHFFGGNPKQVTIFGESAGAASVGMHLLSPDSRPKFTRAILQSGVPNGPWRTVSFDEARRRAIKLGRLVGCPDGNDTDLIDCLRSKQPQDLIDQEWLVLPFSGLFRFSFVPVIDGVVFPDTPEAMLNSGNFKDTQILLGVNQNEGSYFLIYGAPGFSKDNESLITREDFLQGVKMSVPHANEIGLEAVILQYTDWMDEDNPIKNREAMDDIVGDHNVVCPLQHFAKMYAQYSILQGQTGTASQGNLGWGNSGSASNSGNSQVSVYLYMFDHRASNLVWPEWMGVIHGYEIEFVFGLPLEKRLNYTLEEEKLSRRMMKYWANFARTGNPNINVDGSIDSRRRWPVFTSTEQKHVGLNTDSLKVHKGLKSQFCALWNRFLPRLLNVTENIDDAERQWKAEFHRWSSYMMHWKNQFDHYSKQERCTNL
Chain of eqBuChE (from equine serum) (P81908 whole entry): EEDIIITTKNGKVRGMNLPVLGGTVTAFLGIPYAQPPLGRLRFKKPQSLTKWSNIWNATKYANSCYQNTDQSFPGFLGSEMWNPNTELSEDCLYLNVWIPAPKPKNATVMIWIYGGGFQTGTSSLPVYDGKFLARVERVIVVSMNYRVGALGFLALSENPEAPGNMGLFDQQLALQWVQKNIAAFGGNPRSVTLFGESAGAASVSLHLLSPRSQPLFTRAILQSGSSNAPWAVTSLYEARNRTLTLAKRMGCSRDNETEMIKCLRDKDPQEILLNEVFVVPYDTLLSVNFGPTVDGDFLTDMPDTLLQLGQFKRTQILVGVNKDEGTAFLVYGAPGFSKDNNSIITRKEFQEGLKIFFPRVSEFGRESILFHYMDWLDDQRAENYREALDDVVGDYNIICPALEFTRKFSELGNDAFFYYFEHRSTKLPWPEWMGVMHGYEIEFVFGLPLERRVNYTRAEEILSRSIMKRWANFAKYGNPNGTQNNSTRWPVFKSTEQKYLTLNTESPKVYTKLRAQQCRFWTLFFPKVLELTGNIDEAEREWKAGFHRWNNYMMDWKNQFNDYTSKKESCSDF

As a reminder, the pIC50 is the IC50 on a negative log10 scale, so that one unit is a factor of ten. On to `Cc1c(C)c2c(c(C)c1O)CCC(C)(C(=O)NCCNc1c3c(nc4ccccc14)CCCC3)O2` (stereo not drawn) [Compound 8a, 6-Hydroxy-2,5,7,8-tetramethyl-N-{2-[(1,2,3,4-tetrahydroacridin-9-yl)amino]ethyl}-3,4-dihydro-2H-1-benzopyran-2-carboxamide], for which the pIC50 was 4.34 in test [1], 5.82 in test [2] and 6.89 in test [3]. Also, in test [3], the “BuChE selectivity index (SI) = IC50(TcAChE)/IC50(eqBuChE)” value (“BuChE selectivity index” below) is listed as 11.87.
In the case of `Cc1c(C)c2c(c(C)c1O)CCC(C)(C(=O)NCCCNc1c3c(nc4ccccc14)CCCC3)O2` (stereo not drawn) [Compound 8b, 6-Hydroxy-2,5,7,8-tetramethyl-N-{3-[(1,2,3,4-tetrahydroacridin-9-yl)amino]propyl}-3,4-dihydro-2H-1-benzopyran-2-carboxamide], the pIC50 in test [1] is 4.94; in test [2], 5.82; in test [3] it was 7.90. In addition, in test [3] (ratio of IC50 values), the “BuChE selectivity index” value is 121.62.
As for `Cc1c(C)c2c(c(C)c1O)CCC(C)(C(=O)NCCCCNc1c3c(nc4ccccc14)CCCC3)O2` (stereo not drawn) [Compound 8c, 6-Hydroxy-2,5,7,8-tetramethyl-N-{4-[(1,2,3,4-tetrahydroacridin-9-yl)amino]butyl}-3,4-dihydro-2H-1-benzopyran-2-carboxamide], the pIC50 in test [1] is 4.84; in test [2], 5.66; in test [3] it was 7.95. In test [3], the “BuChE selectivity index” value amounted to 196.07.
Take `Cc1c(C)c2c(c(C)c1O)CCC(C)(C(=O)NCCCCCCNc1c3c(nc4ccccc14)CCCC3)O2` (stereo not drawn) [Compound 8d, 6-Hydroxy-2,5,7,8-tetramethyl-N-{6-[(1,2,3,4-tetrahydroacridin-9-yl)amino]hexyl}-3,4-dihydro-2H-1-benzopyran-2-carboxamide]: in test [1], the pIC50 is 4.90. The pIC50 in test [2] is 7.31. In test [3], the “BuChE inhibitor activity, fold higher than tacrine” value is on record as “more than 3 fold”; the “BuChE selectivity index” value amounted to 10.40; the pIC50 is 8.32.
In the case of `c1ccc2c(NCCCCCCCN3CCc4c([nH]c5ccccc45)C3)c3c(nc2c1)CCCC3` [Compound 14, N-(7-(3,4-dihydro-1H-pyrido[3,4-b]indol-2(9H)-yl)heptyl)-1,2,3,4-tetrahydroacridin-9-amine], the pIC50 was 3.89 in test [1] and 8.50 in test [3]. Also, the “BuChE selectivity index” value in test [3] (ratio of IC50 values) amounted to 5.49. Besides, the “BuChE inhibitor activity, fold higher than tacrine” value in test [3] (relative to tacrine) was “more than 3 fold”.
With `c1ccc2c3c([nH]c2c1)CN(CCN1CCc2c([nH]c4ccccc24)C1)CC3` [Compound 16, 1,2-Bis(3,4-dihydro-1H-pyrido[3,4-b]indol-2(9H)-yl)ethane], the values for the pIC50 in test [1], in test [2] and in test [3] were 3.90, under 4.00 and 5.77, respectively. Further, in test [2] (Ellman's method), the “AChE inhibitory activity (in words)” value is given as “no inhibitory activity”. The “BuChE selectivity index” value in test [3] (ratio of IC50 values) is over 58.88.
In the case of `Cc1c(C)c2c(c(C)c1O)CCC(C)(C(=O)O)O2` (stereo not drawn) [Trolox, reference compound], in test [1], the pIC50 was 4.76.
